Measurements: article PMC11506924, “Triterpenoid Saponins and Flavonoid Glycosides from the Flower of Camellia flavida and Their Cytotoxic and α-Glycosidase Inhibitory Activities” (International Journal of Molecular Sciences, 2024)

What was measured:
A549 = experiment: MTT cytotoxicity assay, A549; type: cell-based; settings: Homo sapiens, 24 h exposure, ± SD, n = 8
Description: (§1) The human cervical cancer cell line Hela, the human lung adenocarcinoma cell line A549, the human breast cancer cell lines MCF-7 and MDA-MB-231, the human hepatoma cell lines BEL-7402 and Hep G2, the human embryonic lung fibroblast cell line MRC-5, and the human nasal epithelial cell line HNEpC were all sourced from the China Center for Type Culture Collection (CCTCC, Wuhan University, Hubei, China). Hela, A549, MCF-7, MDA-MB-231, BEL-7402, MRC-5, and Hep G2 cells were maintained in DMEM media, while HNEpC cells were cultured in RPMI 1640. All media were supplemented with 10% FBS (v/v) and 1% penicillin-streptomycin, and cells were grown in a humidified atmosphere containing 5% CO2 at 37 °C.
(§2) The MTT assay was conducted to assess cell viability, as previously described. Cells were seeded onto 96-well plates at a density of 1 × 10^4 cells per well, with each experiment replicated eight times to ensure reproducibility. […] Subsequently, 10 μL MTT reagent was added to each well, and the plates were incubated for a further 4 h at 37 °C, adhering strictly to the manufacturer’s instructions. The optical density (OD) values were then measured at 570 nm using a microplate reader. The cell survival rate for each compound was calculated employing the following formula: OD value of the experimental group−OD value of the blank group/OD value of the control group−OD value of Blank group×100%
(§3) Statistical analysis data from the cytotoxicity and α-glycosidase inhibitory assays were analyzed using the mean and standard deviation. The 50% cytotoxic and inhibitory concentrations were calculated and compared to the control via non-linear regression. These analyses were performed using SPSS® Statistics (Version 18.0, IBM Software, Armonk, NY, USA).

Hela = experiment: MTT cytotoxicity assay, Hela; type: cell-based; settings: Homo sapiens, 24 h exposure, ± SD, n = 8
Description: as §1, §2, §3

MCF-7 = experiment: MTT cytotoxicity assay, MCF-7; type: cell-based; settings: Homo sapiens, MCF7, 24 h exposure, ± SD, n = 8
Description: as §1
(§4) The MTT assay was conducted to assess cell viability, as previously described. Cells were seeded onto 96-well plates at a density of 1 × 10^4 cells per well, with each experiment replicated eight times to ensure reproducibility. Following incubation at 37 °C for 24 h, cells were exposed to various concentrations (0.25, 0.5, 1.0, 2.0, 4.0, 8.0, 16.0, 32.0 µM) of compounds 1–10 for 24 h. Subsequently, 10 μL MTT reagent was added to each well, and the plates were incubated for a further 4 h at 37 °C, adhering strictly to the manufacturer’s instructions. The optical density (OD) values were then measured at 570 nm using a microplate reader. The cell survival rate for each compound was calculated employing the following formula: OD value of the experimental group−OD value of the blank group/OD value of the control group−OD value of Blank group×100%
as §3

BEL-7402 = experiment: MTT cytotoxicity assay, BEL-7402; type: cell-based; settings: Homo sapiens, 24 h exposure, ± SD, n = 8
Description: as §1, §2, §3

MDA-MB-231 = experiment: MTT cytotoxicity assay, MDA-MB-231; type: cell-based, human; settings: for IC50: Homo sapiens, MDA-MB-231, MTT, 24 h exposure, ± SD, n = 8
Description: as §1, §2, §3

[1] = MTT cytotoxicity assay, HNEpC (normal cells); type: cell-based; settings: HNEpC cells (normal nasal epithelial cells), normal human nasal epithelial cells, 24 h exposure, n = 8
Description: as §1, §4, §3

[2] = MTT cytotoxicity assay, MRC-5 (normal cells); type: cell-based; settings: MRC-5 cells (normal embryonic lung fibroblasts), normal human embryonic lung fibroblast, 24 h exposure, n = 8
Description: as §1, §4, §3

Hep G2 = experiment: MTT cytotoxicity assay, Hep G2; type: cell-based; settings: Homo sapiens, HepG2, 24 h exposure, ± SD, n = 8
Description: as §1, §2, §3

## COC(=O)C1OC(OC2CCC3(C)C(CCC4(C)C3CC=C3C5CC(C)(C)CCC5(CO)C(O)C(O)C34C)C2(C)C)C(OC2OC(CO)C(O)C(O)C2O)C(OC2OC(CO)C(O)C(O)C2OC2OC(C)C(O)C(O)C2O)C1O [Compound 1, 3β,15α,16α,28-tetrahydroxyolean-12-en-3-O-β-D-glucopyranosyl-(1→2)-[α-L-rhamnopyranosyl-(1→2)-β-D-galactopyranosyl-(1→3)]-β-D-glucuronopyranoside methyl ester]
A549
  IC50: > 30 µM
Hela
  IC50: 15.1 ± 1.06 µM
MCF-7
  IC50: 9.06 ± 0.45 µM
BEL-7402
  IC50: 7.62 ± 1.06 µM
MDA-MB-231
  IC50: > 30 µM
[1]
  IC50 at 24 h: > 30 µM
[2]
  IC50 at 24 h: > 30 µM
Hep G2
  IC50: 25.6 ± 3.46 µM

## CC1OC(OC2C(OC3C(O)C(C(=O)O)OC(OC4CCC5(C)C(CCC6(C)C5CC=C5C7CC(C)(C)CCC7(CO)C(O)C(O)C56C)C4(C)C)C3OC3OC(CO)C(O)C(O)C3O)OC(CO)C(O)C2O)C(O)C(O)C1O [Compound 2, 3β,15α,16α,28-tetrahydroxyolean-12-en-3-O-β-D-glucopyranosyl-(1→2)-[α-L-rhamnopyranosyl-(1→2)-β-D-galactopyranosyl-(1→3)]-β-D-glucuronopyranoside]
A549
  IC50: > 30 µM
Hela
  IC50: 4.17 ± 0.85 µM
MCF-7
  IC50: 19.2 ± 3.71 µM
BEL-7402
  IC50: > 30 µM
MDA-MB-231
  IC50: 26.5 ± 3.07 µM
[1]
  IC50 at 24 h: > 30 µM
[2]
  IC50 at 24 h: > 30 µM
Hep G2
  IC50: 14 ± 3.29 µM

## CC1OC(OC2C(OC3C(O)C(C(=O)O)OC(OC4CCC5(C)C(CCC6(C)C5CC=C5C7CC(C)(C)CCC7(CO)C(=O)C(O)C56C)C4(C)C)C3OC3OC(CO)C(O)C(O)C3O)OC(CO)C(O)C2O)C(O)C(O)C1O [Compound 3, 3β,15α,28-trihydroxyolean-12-en-16-on-3-O-β-D-glucopyranosyl-(1→2)-[α-L-rhamnopyranosyl-(1→2)-β-D-galactopyranosyl-(1→3)]-β-D-glucuronopyranoside]
A549
  IC50: 23.4 ± 7.26 µM
Hela
  IC50: > 30 µM
MCF-7
  IC50: 1.65 ± 0.39 µM
BEL-7402
  IC50: 4.94 ± 0.41 µM
MDA-MB-231
  IC50: 10.1 ± 2.28 µM
MDA-MB-231; compared with positive control
  inhibitory effect on MDA-MB-231 cells (in words): comparable to that of cisplatin
[1]
  IC50 at 24 h: > 30 µM
[2]
  IC50 at 24 h: > 30 µM
Hep G2
  IC50: 8.77 ± 1.56 µM

## CC1OC(OC2C(OC3C(OC4C(=O)c5c(O)cc(O)cc5OC4c4ccc(O)cc4)OC(C)C(O)C3O)OC(CO)C(O)C2O)C(O)C(O)C1O [Compound 4, (2R,3R)-3,5,7,4′-tetrahydroxyflavanone-3-O-α-L-rhamnopyranosyl-(1→2)-β-D-glucopyranosyl-(1→2)-α-L-rhamnoside]
A549
  IC50: > 30 µM
Hela
  IC50: > 30 µM
MCF-7
  IC50: > 30 µM
BEL-7402
  IC50: > 30 µM
MDA-MB-231
  IC50: > 30 µM
[1]
  IC50 at 24 h: > 30 µM
[2]
  IC50 at 24 h: > 30 µM
Hep G2
  IC50: > 30 µM

## CC(=O)OC1C(O)C(C)OC(OC2C(OC3C(OC4C(=O)c5c(O)cc(O)cc5OC4c4ccc(O)cc4)OC(C)C(O)C3O)OC(CO)C(O)C2O)C1O [Compound 5, (2R,3S)-3,5,7,4′-tetrahydroxyflavanone-3-O-[3-acetyl-O-α-L-rhamnopyranosyl-(1→2)-β-D-glucopyranosyl-(1→2)]-α-L-rhamnoside]
A549
  IC50: > 30 µM
Hela
  IC50: > 30 µM
MCF-7
  IC50: > 30 µM
BEL-7402
  IC50: > 30 µM
MDA-MB-231
  IC50: > 30 µM
[1]
  IC50 at 24 h: > 30 µM
[2]
  IC50 at 24 h: > 30 µM
Hep G2
  IC50: 20.8 ± 3.79 µM

## CC(=O)OC1C(C)OC(OC2C(OC3C(OC4C(=O)c5c(O)cc(O)cc5OC4c4ccc(O)cc4)OC(C)C(O)C3O)OC(CO)C(O)C2O)C(O)C1O [Compound 6, (2R,3R)-3,5,7,4′-tetrahydroxyflavanone-3-O-[4-acetyl-O-α-L-rhamnopyranosyl-(1→2)-β-D-glucopyranosyl-(1→2)]-α-L-rhamnoside]
A549
  IC50: > 30 µM
Hela
  IC50: > 30 µM
MCF-7
  IC50: > 30 µM
BEL-7402
  IC50: 11.4 ± 3.11 µM
MDA-MB-231
  IC50: > 30 µM
[1]
  IC50 at 24 h: > 30 µM
[2]
  IC50 at 24 h: > 30 µM
Hep G2
  IC50: > 30 µM

## C[C@@H]1O[C@@H](OC[C@H]2O[C@@H](Oc3c(-c4ccc(O)c(O)c4)oc4cc(O)cc(O)c4c3=O)[C@H](OC(=O)/C=C/c3ccc(O)cc3)[C@@H](O[C@@H]3OC[C@H](O)[C@H](O)[C@H]3O)[C@@H]2O)[C@H](O)[C@H](O[C@@H]2OC[C@@H](O)[C@H](O)[C@H]2O)[C@H]1O [Compound 7, 3,5,7,3′,4′-pentahydroxyflavonol-3-O-α-L-arabinopyranosyl-(1→3)-[β-D-xylopyranosyl-(1→3)-α-L-rhamnopyranosyl-(1→6)]-2-O-p-E-coumaryl-β-D-glucopyranoside]
A549
  IC50: > 30 µM
Hela
  IC50: > 30 µM
MCF-7
  IC50: > 30 µM
BEL-7402
  IC50: > 30 µM
MDA-MB-231
  IC50: > 30 µM
[1]
  IC50 at 24 h: > 30 µM
[2]
  IC50 at 24 h: > 30 µM
Hep G2
  IC50: > 30 µM

## COc1cccc2c1C(=O)c1c(O)c3c(c(O)c1C2=O)C[C@@](O)(C(=O)CO)C[C@@H]3O[C@H]1C[C@H](N)[C@H](O)[C@H](C)O1 [doxorubicin, reference compound]
MCF-7
  IC50: 3.79 ± 0.26 µM
